In patent US10398689B2, “Benzopiperidine derivative, preparation method thereof and medical use thereof” (Jiangsu Hengrui Medicine Co., Ltd., priority 2015, dated 2019):

Assays:
MCF7 cells = test: Inhibition of the proliferation of MCF7 cells (Cell Titer-Glo); type: cell-based; conditions: Homo sapiens, MCF-7 cells, 72 hours, read-out: IC50 value of inhibition effect on the proliferation of MCF7 cells
Summary of the method: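 MCF-7 cells seeded 24 h, then treated with compound (0.5% DMSO final) in 2% FBS medium for 72 h at 37 °C; viability read by CellTiter-Glo luminescence. IC50 from luminescence vs log concentration; maximum inhibition scaled to AZD9496 at 100 nM set as 100%.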

ER (estrogen receptor) = biological target: T1, ER (estrogen receptor) (Homo sapiens, UniProt P03372); test: Inhibition of the binding of estrogen (E) to estrogen receptor (ER), MCF-7/ERE-luciferase reporter cells; type: cell-based; conditions: MCF-7/ERE-luciferase cells, 0.1 nM estradiol, 24 hours, chemiluminescence; read-out: IC50 value of inhibition effect on the binding of E to ER
T1 construct: MCF-7/ERE-luciferase monoclonal cells were selected by transfection of MCF-7; host or cells: MCF-7/ERE-luciferase (only the ERE-luciferase reporter was transfected)
T1 sequence (P03372 1-595): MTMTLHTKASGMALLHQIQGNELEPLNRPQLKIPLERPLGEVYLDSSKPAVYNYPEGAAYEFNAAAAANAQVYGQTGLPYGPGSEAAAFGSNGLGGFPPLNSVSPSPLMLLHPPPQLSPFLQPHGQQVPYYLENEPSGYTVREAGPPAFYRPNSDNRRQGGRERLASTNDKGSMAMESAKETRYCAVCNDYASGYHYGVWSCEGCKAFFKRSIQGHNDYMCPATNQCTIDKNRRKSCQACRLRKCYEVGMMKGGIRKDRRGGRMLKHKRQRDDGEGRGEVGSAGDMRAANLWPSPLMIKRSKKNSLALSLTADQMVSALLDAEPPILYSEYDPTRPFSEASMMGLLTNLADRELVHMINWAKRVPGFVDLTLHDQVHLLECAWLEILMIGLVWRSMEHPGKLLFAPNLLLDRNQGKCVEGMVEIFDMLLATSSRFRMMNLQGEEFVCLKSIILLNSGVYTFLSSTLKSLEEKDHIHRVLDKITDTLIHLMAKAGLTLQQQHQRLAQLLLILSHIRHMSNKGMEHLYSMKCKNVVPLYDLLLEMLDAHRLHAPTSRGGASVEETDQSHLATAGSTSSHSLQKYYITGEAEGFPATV
Summary of the method: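 MCF-7 cells stably carrying an ERE-luciferase reporter, grown in charcoal-stripped FBS medium, were treated with compound plus 0.1 nM estradiol for 24 h at 37 °C. Luciferase chemiluminescence was then read and plotted against log compound concentration to derive IC50.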

SMILES	IC50 (MCF7 cells) [nM]	IC50 (ER (estrogen receptor)) [nM]
CCn1cc(-c2ccc3c(c2)CC(C)N(c2ccc(C(C)C)cc2)C3c2ccc(/C=C/C(=O)O)cc2)cn1 [Example 7, (E)-3-(4-((1R,3R/1S,3S)-6-(1-Ethyl-1H-pyrazol-4-yl)-2-(4-isopropylphenyl)-3-methyl-1,2,3,4-tetrahydroisoquinolin-1-yl)phenyl)acrylic acid]	0.86	1.79
C[C@@H]1Cc2cc(-c3cnn(C)c3)ccc2[C@@H](c2ccc(/C=C/C(=O)O)cc2)N1c1ccc(C2CC2)cc1 [Example 11, (E)-3-(4-((1R,3R)-2-(4-Cyclopropylphenyl)-3-methyl-6-(1-methyl-1H-pyrazol-4-yl)-1,2,3,4-tetrahydroisoquinolin-1-yl)phenyl)acrylic acid]	1.47	0.32
CCn1cc(-c2ccc3c(c2)C[C@@H](C)N(c2ccc(C4CC4)cc2)[C@@H]3c2ccc(/C=C/C(=O)O)cc2)cn1 [Example 14, (E)-3-(4-((1R,3R)-2-(4-Cyclopropylphenyl)-6-(1-ethyl-1H-pyrazol-4-yl)-3-methyl-1,2,3,4-tetrahydroisoquinolin-1-yl)phenyl)acrylic acid]	0.53	0.25

Now those with a lower IC50 (MCF7 cells), led by results:

IC50 (MCF7 cells) [nM]	IC50 (ER (estrogen receptor)) [nM]	SMILES
0.34	0.52	CC(C)c1ccc(N2[C@H](c3ccc(/C=C/C(=O)O)cc3)c3ccc(-c4cnn(C)c4)cc3C[C@H]2C)cc1 [Example 42, (E)-3-(4-((1R,3R)-2-(4-Isopropylphenyl)-3-methyl-6-(1-methyl-1H-pyrazol-4-yl)-1,2,3,4-tetrahydroisoquinolin-1-yl)phenyl)acrylic acid]
0.17	0.39	CCn1cc(-c2ccc3c(c2)C[C@@H](C)N(c2ccc(C(C)C)cc2)[C@@H]3c2ccc(/C=C/C(=O)O)cc2)cn1 [Example 8, (E)-3-(4-((1R,3R)-6-(1-Ethyl-1H-pyrazol-4-yl)-2-(4-isopropylphenyl)-3-methyl-1,2,3,4-tetrahydroisoquinolin-1-yl)phenyl)acrylic acid]
0.37	2.11	CCc1ccc(N2C(C)Cc3cc(-c4cnn(C)c4)ccc3C2c2ccc(/C=C/C(=O)O)cc2)cc1 [Example 1, (E)-3-(4-((1R,3R/1S,3S)-2-(4-Ethylphenyl)-3-methyl-6-(1-methyl-1H-pyrazol-4-yl)-1,2,3,4-tetrahydroisoquinolin-1-yl)phenyl)acrylic acid]
